Data on 13 molecules can be found in ChEMBL document CHEMBL1201862, “PubChem BioAssay data set” (2004).

Each structure is given as a SMILES string. Activity calls are given as the source filed them. Some results are limits rather than exact numbers.

For one series, the system named is Escherichia coli. The series can be described thus: microbe, parasite or virus in culture.
The target of the next series is T1, CAAX prenyl protease 2 (Homo sapiens, UniProt Q9Y256).
T1 sequence (Q9Y256 whole entry): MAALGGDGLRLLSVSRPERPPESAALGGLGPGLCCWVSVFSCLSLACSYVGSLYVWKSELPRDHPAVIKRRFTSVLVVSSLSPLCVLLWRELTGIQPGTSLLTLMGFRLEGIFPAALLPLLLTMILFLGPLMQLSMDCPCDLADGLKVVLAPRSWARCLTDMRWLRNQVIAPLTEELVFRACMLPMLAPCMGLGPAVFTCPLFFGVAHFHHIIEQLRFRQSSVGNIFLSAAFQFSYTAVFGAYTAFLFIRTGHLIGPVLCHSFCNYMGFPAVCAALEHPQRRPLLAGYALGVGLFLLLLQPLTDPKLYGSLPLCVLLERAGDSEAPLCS
The series can be described thus: inhibition of Ras-converting CAAX protease Rce1 – biochemical, yeast membranes, quenched-peptide fluorescence, cherry-pick, dose response (AID 588849).

Another series has as its target Cytochrome P450 3A4 (Homo sapiens, UniProt P08684).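 Also: CYP3A4 tested as one member of a cytochrome P450 panel screen.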
Series [1] can be described thus: decrease of insulin promoter-GFP reporter – imaging, high-content screening, mouse beta cells (AID 1628). Conditions: MIN6. In kind it is functional.
Series [2] can be described thus: MIN6 cell viability loss – mouse insulinoma, cytotoxicity control, dose response (AID 2122).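 Also: confirmatory high-throughput counterscreen run to flag cytotoxic compounds.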 Format: functional.
The target of the next series is T2, Cytochrome P450 1A2 (Homo sapiens, UniProt P05177).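 Also: PubChem cytochrome P450 panel assay, CYP1A2 panel member.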
T2 sequence (P05177 whole entry): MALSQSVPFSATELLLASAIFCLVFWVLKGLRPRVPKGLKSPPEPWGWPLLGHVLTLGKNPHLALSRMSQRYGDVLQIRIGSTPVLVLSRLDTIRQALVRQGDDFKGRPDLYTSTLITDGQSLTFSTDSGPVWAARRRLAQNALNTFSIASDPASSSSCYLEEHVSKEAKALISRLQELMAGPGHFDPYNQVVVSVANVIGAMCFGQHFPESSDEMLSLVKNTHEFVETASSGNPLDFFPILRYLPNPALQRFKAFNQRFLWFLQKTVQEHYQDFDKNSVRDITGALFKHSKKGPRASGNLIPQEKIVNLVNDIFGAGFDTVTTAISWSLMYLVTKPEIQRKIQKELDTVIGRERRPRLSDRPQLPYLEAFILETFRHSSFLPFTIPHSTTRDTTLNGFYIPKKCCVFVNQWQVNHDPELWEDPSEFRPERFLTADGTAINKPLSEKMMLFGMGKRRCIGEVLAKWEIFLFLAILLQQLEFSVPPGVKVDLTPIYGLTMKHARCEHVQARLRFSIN

Series [3] deals with T3, Mannose-6-phosphate isomerase (Homo sapiens, UniProt P34949).
T3 sequence (P34949 whole entry): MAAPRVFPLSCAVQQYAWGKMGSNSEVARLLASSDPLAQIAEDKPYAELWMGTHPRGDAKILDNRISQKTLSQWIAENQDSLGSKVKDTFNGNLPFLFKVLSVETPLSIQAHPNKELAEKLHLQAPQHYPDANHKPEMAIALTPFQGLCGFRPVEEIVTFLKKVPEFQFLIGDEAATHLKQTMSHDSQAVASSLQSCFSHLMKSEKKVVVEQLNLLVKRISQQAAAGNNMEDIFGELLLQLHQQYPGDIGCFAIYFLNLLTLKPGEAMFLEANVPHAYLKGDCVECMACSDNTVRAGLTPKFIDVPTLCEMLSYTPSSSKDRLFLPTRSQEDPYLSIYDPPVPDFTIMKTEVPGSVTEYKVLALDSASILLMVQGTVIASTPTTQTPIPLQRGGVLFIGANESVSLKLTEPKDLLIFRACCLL
The series can be described thus: phosphomannose isomerase inhibition – biochemical, fluorescence intensity, confirmation (AID 1535).

In a further series the target is T4, Phosphomannomutase 2 (Homo sapiens, UniProt O15305).
T4 sequence (O15305 whole entry): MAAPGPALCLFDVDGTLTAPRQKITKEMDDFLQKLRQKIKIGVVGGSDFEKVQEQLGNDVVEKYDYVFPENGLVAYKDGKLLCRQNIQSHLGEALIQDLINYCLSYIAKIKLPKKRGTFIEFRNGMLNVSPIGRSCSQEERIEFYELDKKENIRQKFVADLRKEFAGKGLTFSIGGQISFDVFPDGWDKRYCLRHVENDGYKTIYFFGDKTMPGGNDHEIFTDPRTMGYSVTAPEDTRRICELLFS
The series can be described thus: Counter screen SAR assay for PMM2 inhibitors via a fluorescence intensity assay. [Related pubchem assays (depositor defined):AID1545, AID1574].

Series [4] addresses T5, Phosphoethanolamine/phosphocholine phosphatase (Homo sapiens, UniProt Q8TCT1).
T5 sequence (Q8TCT1 whole entry): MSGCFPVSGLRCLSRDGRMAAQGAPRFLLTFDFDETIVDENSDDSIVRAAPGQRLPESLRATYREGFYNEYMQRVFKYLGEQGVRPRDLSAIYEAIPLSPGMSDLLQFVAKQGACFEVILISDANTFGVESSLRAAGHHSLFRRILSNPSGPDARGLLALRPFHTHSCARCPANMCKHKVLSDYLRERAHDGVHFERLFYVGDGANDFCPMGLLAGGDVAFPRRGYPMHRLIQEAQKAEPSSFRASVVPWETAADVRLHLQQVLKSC
Briefly: SAR assay for compounds that inhibit PHOSPHO1. [Related pubchem assays (depositor defined):AID1545, AID1565, AID1574].

The next series deals with Cytochrome P450 2D6 (Homo sapiens, UniProt P10635).
Chain of Cytochrome P450 2D6 (P10635 whole entry): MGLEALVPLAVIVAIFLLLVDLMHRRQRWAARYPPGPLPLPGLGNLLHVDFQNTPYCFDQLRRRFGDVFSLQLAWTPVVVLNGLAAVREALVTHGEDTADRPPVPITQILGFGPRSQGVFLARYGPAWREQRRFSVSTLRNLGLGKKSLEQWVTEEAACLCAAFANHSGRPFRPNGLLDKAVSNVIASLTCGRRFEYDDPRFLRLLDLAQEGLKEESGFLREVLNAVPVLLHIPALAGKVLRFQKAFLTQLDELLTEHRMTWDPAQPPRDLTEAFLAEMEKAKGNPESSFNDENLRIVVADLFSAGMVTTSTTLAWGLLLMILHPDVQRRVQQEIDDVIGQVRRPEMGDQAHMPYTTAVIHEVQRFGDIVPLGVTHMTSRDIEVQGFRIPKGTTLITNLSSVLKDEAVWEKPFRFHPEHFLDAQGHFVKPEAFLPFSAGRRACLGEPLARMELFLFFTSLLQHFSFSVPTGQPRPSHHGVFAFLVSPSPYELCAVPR
Series [5] is described as follows: Luminescence Cell-Based Dose Confirmation HTS to Identify Activators of 5'UTR Stem-Loop Driven Alpha-Synuclein mRNA Translation in H4 Neuroglioblastoma Cells. [Related pubchem assays: 1829 (Project Summary), 1814 (Primary HTS)]. In kind it is functional.
The nature of series [6]: Luminescence Cell-Based Dose Response HTS to Identify Activators of Luciferase Translation or Activity in H4 […] Cells. [Related pubchem assays: 1829 (Project Summary), 1814 (Primary HTS)]. In kind it is functional.
Another series relates to H4. Briefly: Luminescence Cell-Based Dose Response HTS to Identify Activators of 5'UTR Stem-Loop Driven Prion Protein mRNA Translation in H4 Neuroglioblastoma Cells. [Related pubchem assays: 1829 (Project Summary), 1814 (Primary HTS)]. In kind it is functional. The conditions noted are these: Homo sapiens.
The target of series [7] is T6, Low molecular weight phosphotyrosine protein phosphatase (Homo sapiens, UniProt P24666).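 Also: Dose-response confirmation assay measuring inhibition of LMPTP enzyme activity by fluorescence intensity read-out.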
T6 sequence (P24666 whole entry): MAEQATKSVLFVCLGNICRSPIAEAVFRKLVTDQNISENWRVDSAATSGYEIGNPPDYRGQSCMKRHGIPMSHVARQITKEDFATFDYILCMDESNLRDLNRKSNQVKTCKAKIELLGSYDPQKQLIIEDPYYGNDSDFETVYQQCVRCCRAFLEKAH
Format: functional. Conditions: read-out: IC50_Mean.

The subject of series [8] is Streptococcus sp. 'group A'. The series can be described thus: Streptococcus pyogenes SK(-)GAS viability under kanamycin – luminescence, BacTiterGlo, confirmation, counter-screen for streptokinase expression inhibitor project, dose response (AID 1900). Format: functional, organism-based.
Another series addresses T7, Streptokinase A (Streptococcus pyogenes serotype M1, UniProt P10520).
T7 sequence (P10520 whole entry): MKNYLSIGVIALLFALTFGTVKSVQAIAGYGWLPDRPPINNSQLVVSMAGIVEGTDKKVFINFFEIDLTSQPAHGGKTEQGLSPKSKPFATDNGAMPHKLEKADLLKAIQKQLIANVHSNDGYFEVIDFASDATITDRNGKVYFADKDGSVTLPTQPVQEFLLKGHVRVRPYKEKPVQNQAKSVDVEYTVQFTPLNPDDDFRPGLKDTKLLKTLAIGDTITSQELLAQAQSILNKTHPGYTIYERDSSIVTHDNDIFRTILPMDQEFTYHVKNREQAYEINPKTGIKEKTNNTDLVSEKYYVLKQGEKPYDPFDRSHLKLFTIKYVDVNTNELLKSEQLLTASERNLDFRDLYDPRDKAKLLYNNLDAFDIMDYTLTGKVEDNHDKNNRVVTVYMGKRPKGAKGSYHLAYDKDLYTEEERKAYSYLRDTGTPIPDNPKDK
Briefly: viability-normalized secreted streptokinase activity reduction – plasminogen activation absorbance, OD405, dose response (AID 1914).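 Also: secreted streptokinase activity via plasminogen activation per viability signal from cell pellet.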 In kind it is functional, Streptococcus pyogenes M1 GAS.

In the next series the test system is Streptococcus. The series can be described thus: GAS UMAA2166 growth inhibition – luminescence, BacTiterGlo, counter-screen for streptokinase expression inhibitor project, dose response (AID 1915).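 Also: potency for reduction of bacterial viability or growth.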 In kind it is functional, organism-based.
The test system of another series is INS1. Briefly: INS-1E survival protection against cytokine death – cell-based, luminescence, retest, dose response (AID 449756).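 Also: cell death triggered by IL-1 beta plus TNF-alpha plus IFN-gamma mixture; protective hits raise ATP signal compared with cytokine alone wells.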 In kind it is functional. The conditions noted are these: Rattus norvegicus.
Series [9] deals with Vero. Briefly: cells. Format: functional. Conditions: Chlorocebus sabaeus.
Series [10] in a line: reduction of Shn3 3'UTR-driven luciferase in osteoblasts – cell-based, Clone20 osteoblasts, firefly luciferase, cherry-picked, dose response (AID 624132).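 Also: firefly luciferase luminescence from reporter carrying the Shn3 3'UTR in osteoblasts.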 In kind it is functional.
Series [11] can be described thus: loss of viability in HepG2 cells – cell-based, CellTiter-Glo, cherry-picked, cytotoxicity control for Shn3 inhibitor project, dose response (AID 624134). Format: functional.
The nature of series [12]: non-specific 3'UTR reporter inhibition in Clone20-Shn3RL – cell-based, Renilla luciferase, cherry-picked, counter-screen for Shn3 inhibitor project, dose response (AID 624133). Format: functional.
The nature of series [13]: viability of uninfected HEp-2 cells – cell-based, HTS, cytotoxicity control for RSV inhibitor project, dose response (AID 2410). Format: functional. Conditions: human respiratory syncytial virus.
Series [14] deals with Vero. Briefly: cells. In kind it is functional, cell-based. Conditions: Chlorocebus sabaeus.

Chain of Cytochrome P450 3A4 (P08684 whole entry): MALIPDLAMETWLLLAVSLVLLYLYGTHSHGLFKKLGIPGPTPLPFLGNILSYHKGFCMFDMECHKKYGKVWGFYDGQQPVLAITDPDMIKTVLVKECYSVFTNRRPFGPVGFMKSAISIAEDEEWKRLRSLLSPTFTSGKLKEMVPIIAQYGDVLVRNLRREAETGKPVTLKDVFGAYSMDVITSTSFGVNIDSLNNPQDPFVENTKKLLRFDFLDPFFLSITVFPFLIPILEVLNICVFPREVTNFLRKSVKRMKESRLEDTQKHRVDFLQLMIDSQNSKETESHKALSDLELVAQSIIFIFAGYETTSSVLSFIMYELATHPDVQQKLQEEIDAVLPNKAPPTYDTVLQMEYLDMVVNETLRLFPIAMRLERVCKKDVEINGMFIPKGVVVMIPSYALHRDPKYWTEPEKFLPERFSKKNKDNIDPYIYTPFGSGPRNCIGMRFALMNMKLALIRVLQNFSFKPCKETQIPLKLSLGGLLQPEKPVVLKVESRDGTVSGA

Regarding `Cc1ccn(C(=O)c2ccc(NC(=O)C3CC3)cc2)n1`, in the series on Escherichia coli, the AC50 was 22.3 µM (active).

For `COC(C/C=C/[C@@H](O)[C@H](C)OCc1ccccc1)OC`, the AC50 on CAAX prenyl protease 2 is 16.5 µM (active).

Regarding `Cn1cccc1C(=O)N1CCC2(CCN(Cc3nccs3)CC2)CC1`, the AC50 result on Cytochrome P450 3A4 is given as “inconclusive”.

Consider `Cc1cc(C(=O)CSc2nc3cc(Cl)ccc3[nH]2)c(C)n1CC1CCCO1` (centres undefined), for which the IC50 was 2.74 µM (active) in [1] and 2.99 µM (active) in series [2].

For `O=C(c1cnccn1)N1CCC2(CC1)CCN(C(c1ccccc1)c1ccccc1)CC2`, the AC50 on Cytochrome P450 1A2 was 10 µM (inconclusive); on Cytochrome P450 3A4 it was “inconclusive”.

As to `O=c1c2ccccc2sn1-c1ccc(S(=O)(=O)N2CCOCC2)cc1`, the IC50 in [3] was > 50 µM (inactive); at Phosphomannomutase 2, > 100 µM (inactive); in series [4], 0.545 µM (active).

With `O=C(Oc1ccccc1)N1CCC2(CCN(Cc3ccccc3)CC2)CC1`, the concentration at half-maximal activity (AC50) was 39.8 µM (inconclusive) on Cytochrome P450 2D6 and “inconclusive” on Cytochrome P450 3A4.

Regarding `NS(=O)(=O)c1ccc(N/N=C/c2cn(-c3ccccc3)nc2-c2ccccc2)c([N+](=O)[O-])c1`, the figures for the EC50 (in [5]; in series [6]; with H4) were > 120 µM (not active), > 60 µM (not active) and > 120 µM (not active), respectively. Besides, the figures for the IC50 in series [1] and in [2] were 1.05 µM (active) and 3.46 µM (active), respectively.

For `[N-]=[N+]=Nc1cc([N+](=O)[O-])cc2sn(-c3ccccc3)c(=O)c12`, the results for the IC50 (in series [3]; at Phosphomannomutase 2; in [4]) were > 50 µM (inactive), 96.4 µM (active) and 0.498 µM (active), respectively.

For the molecule `CCn1cc(C(=O)O)c(=O)c2cc(F)c(N3CCN(C(=S)NC(=O)c4ccc(OC)cc4)CC3)cc21`, the IC50 in series [7] is 7.26 µM (active). The AC50 in the series with Escherichia coli was 8.97 µM (active).

For `CC1=NN(c2nc3ccccc3[nH]2)C(=O)C1Cc1ccccc1` (centres undefined), the IC50 in series [1] was 1.53 µM (active); in series [2] it was 1.43 µM (active). In addition, the EC50 in [8] was 1.17 µM (active); on Streptokinase A, > 150 µM (not active); in the series with Streptococcus, > 150 µM (not active). Further, the AC50 is 1.43 µM (active) in the series on INS1, 4.11 µM (active) in [10], > 70 µM (inactive) in series [11] and 2.6 µM (active) in [12]. The CC50 in the series with Vero [9] was 2.92 µM (active).

In the case of `Cc1cccc(NC(=O)CSc2nc3ccccc3nc2N2CCCCC2)c1`, the figures for the CC50 (in series [13]; in the series with Vero [9]) were 10.3 µM (active) and > 25 µM (active), respectively. For the same molecule, the IC50 is 9.16 µM (active) in the series on Vero [14] and 9 µM (active) in the series “cells”.

For `CC(=O)/C(C#N)=C1\NC(=O)C(Cc2ccccc2)S1` (centres undefined), the CC50 in series [13] is 14.4 µM (active). The IC50 with Vero [14] was 9.17 µM (active); in “cells” it was 5.09 µM (active).
